± gives the expanded uncertainty stated by the source.
Details: Liquid; for Critical pressure: Direct measurement; for Normal boiling temperature: Ebulliometric method (Recirculating still); for Critical temperature: Visual observation in a stirred cell

Row | SMILES | Critical pressure | Normal boiling temperature | Critical temperature
1 | Cc1cccc2ccccc12 [1-methylnaphthalene] | 3540 ± 220 kPa | 244.6 ± 0.2 °C | 773 ± 16 K
2 | Cc1ccc2ccccc2c1 [2-methylnaphthalene] | 3300 ± 200 kPa | 241.1 ± 0.2 °C | 755 ± 16 K
3 | CCc1ccc2ccccc2c1 [2-ethylnaphthalene] | 2790 ± 160 kPa | 254.1 ± 0.2 °C | 763 ± 16 K
4 | Cc1cc(C)c2ccccc2c1 [1,3-dimethylnaphthalene] | 2740 ± 160 kPa | 265.1 ± 0.2 °C | 772 ± 16 K
5 | Cc1ccc(C)c2ccccc12 [1,4-dimethylnaphthalene] | 2790 ± 160 kPa | 265.1 ± 0.2 °C | 778 ± 16 K

— the NIST ThermoML archive (doi:10.1016/j.fluid.2013.08.041)
